Results from US20260207602A1, “EGFR INHIBITORS” (Blueprint Medicines Corporation, priority 2022, published 2026).

Tests used:
[1] = molecular target: intracellular phosphorylation of EGFR (Tyr1068) in PC-9 cells (Homo sapiens, UniProt P00533, DEL746-750); experiment: PC-9 pEGFR AlphaLISA assay; format: cell-based; conditions: 4 hours incubation, read-out: Phos EGFR PC9 IC50
Procedure, shortened: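 PC-9 cells (EGFR del746-750) in phenol-free DMEM/10% FBS, adhered overnight, then exposed to 10-point 4-fold compound dilutions for 4 h at 37 °C. Lysates assayed for pEGFR Tyr1068 by AlphaLISA SureFire Ultra; IC50 from percent pEGFR inhibition vs log concentration.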

EGFR L858R = molecular target: T1, EGFR L858R (Homo sapiens, UniProt P00533, L858R); experiment: Biochemical EGFR inhibition assay (Caliper mobility shift), EGFR L858R; conditions: biochemical Caliper mobility shift assay, EGFR L858R enzyme; read-out: Enz EGFR L858R IC50
T1 construct: purchased SignalChem E10-122BG
T1 sequence (P00533 25-1210 L858R): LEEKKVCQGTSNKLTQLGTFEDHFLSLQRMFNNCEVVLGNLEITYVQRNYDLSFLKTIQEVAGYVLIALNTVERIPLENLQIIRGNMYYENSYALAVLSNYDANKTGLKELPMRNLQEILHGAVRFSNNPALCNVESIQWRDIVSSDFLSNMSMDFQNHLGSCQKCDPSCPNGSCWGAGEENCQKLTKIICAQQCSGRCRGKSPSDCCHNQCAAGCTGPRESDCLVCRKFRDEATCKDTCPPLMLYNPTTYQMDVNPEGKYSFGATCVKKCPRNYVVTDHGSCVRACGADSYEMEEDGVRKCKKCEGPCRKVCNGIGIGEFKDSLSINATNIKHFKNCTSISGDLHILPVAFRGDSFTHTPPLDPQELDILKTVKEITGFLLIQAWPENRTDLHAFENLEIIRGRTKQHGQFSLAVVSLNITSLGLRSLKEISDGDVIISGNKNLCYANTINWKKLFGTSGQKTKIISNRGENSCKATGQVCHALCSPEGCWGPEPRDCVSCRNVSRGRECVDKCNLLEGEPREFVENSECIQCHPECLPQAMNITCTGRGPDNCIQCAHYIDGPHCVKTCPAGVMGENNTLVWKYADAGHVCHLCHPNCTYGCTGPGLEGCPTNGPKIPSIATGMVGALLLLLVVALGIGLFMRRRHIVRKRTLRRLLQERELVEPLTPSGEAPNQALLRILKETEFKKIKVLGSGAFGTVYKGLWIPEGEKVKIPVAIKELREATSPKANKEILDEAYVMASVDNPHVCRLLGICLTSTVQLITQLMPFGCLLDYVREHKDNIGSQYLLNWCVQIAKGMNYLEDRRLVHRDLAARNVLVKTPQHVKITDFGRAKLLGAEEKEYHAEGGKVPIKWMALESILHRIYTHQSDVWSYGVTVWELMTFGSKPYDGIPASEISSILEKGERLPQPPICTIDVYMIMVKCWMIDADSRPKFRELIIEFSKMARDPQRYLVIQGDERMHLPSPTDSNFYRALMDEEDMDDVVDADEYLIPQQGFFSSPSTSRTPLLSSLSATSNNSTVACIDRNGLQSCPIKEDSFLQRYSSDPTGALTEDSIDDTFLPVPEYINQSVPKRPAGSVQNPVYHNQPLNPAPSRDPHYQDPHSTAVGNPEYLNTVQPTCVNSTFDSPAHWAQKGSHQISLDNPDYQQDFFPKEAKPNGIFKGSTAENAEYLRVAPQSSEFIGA
Procedure, shortened: (§1)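 Kinase activity measured as phosphorylation of 2.5 µM 5-FAM-labelled peptide substrate in 100 mM HEPES pH 7.5, 10 mM MgCl2, 0.015% Brij-35, 1 mM DTT, 1.0% DMSO, at 1.0 mM ATP or ATP Km. Run at 25 °C to 10–20% conversion, stopped with EDTA; product resolved by mobility shift, apparent IC50 from percent activity vs log concentration.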

EGFR (d746-750) = molecular target: T2, EGFR (d746-750) (Homo sapiens, UniProt P00533, DEL746-750); experiment: Biochemical EGFR inhibition assay (Caliper mobility shift), EGFR (d746-750); conditions: biochemical Caliper mobility shift assay, EGFR Exon 19-del enzyme; read-out: Enz EGFR Exon 19-del IC50
T2 construct: purchased SignalChem E10-122JG
T2 sequence (P00533 with tags, fused parts or gaps DEL746-750 limits assumed): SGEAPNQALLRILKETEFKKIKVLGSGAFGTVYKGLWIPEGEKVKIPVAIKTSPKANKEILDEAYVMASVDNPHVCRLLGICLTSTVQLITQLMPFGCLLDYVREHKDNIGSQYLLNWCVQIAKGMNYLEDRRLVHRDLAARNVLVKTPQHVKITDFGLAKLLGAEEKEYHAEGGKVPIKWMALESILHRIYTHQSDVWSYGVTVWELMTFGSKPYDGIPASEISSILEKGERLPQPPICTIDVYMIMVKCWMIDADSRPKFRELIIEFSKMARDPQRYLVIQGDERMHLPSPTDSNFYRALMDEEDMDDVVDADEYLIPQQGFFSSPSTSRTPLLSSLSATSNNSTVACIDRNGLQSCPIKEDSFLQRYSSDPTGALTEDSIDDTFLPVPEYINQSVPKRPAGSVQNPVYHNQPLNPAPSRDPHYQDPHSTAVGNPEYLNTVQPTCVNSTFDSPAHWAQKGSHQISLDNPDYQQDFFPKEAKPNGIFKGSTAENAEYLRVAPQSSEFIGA
Procedure, shortened: as §1

Chain of intracellular phosphorylation of EGFR (Tyr1068) in PC-9 cells (P00533 with tags, fused parts or gaps DEL746-750): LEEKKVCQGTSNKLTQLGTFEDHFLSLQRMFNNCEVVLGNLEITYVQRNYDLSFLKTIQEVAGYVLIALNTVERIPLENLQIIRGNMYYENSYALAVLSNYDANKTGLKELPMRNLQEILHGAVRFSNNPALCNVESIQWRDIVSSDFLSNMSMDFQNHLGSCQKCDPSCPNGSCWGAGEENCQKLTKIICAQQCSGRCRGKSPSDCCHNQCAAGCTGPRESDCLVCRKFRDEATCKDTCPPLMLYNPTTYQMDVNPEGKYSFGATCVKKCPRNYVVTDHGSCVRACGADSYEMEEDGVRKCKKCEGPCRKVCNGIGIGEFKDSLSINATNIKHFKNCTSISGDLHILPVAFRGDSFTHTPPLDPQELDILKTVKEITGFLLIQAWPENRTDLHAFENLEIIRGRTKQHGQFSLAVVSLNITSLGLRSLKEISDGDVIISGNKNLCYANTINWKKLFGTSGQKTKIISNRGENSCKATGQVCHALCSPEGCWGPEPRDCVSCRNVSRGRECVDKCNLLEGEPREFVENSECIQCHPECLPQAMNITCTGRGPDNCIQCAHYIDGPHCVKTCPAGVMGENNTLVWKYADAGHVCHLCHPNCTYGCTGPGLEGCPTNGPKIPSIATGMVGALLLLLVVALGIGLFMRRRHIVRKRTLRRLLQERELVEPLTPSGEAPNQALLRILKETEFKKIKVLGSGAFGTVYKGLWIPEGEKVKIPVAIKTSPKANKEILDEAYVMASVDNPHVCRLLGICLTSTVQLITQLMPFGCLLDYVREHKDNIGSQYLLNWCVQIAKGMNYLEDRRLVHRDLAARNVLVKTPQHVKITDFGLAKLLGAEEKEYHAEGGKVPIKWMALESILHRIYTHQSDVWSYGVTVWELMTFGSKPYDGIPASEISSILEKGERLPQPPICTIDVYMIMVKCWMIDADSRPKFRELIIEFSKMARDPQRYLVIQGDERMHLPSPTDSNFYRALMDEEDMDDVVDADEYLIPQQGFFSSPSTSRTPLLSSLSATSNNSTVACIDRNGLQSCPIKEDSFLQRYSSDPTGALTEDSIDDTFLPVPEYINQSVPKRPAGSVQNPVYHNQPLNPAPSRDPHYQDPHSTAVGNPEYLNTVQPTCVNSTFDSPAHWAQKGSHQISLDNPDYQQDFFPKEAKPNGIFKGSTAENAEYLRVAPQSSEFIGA

IC50 [1] [nM] | IC50 (EGFR L858R) [nM] | IC50 (EGFR (d746-750)) [nM] | Structure (SMILES)
10.1 to 50 | 10.1 to 50 | ≤ 10 | CN1CCC(Oc2cc(-c3cnn(C)c3)cc3ncnc(Nc4ccc5scnc5c4)c23)CC1 [Example A03, N-(7-(1-methyl-1H-pyrazol-4-yl)-5-((1-methylpiperidin-4-yl)oxy)quinazolin-4-yl)benzo[d]thiazol-5-amine]
10.1 to 50 | ≤ 10 | ≤ 10 | CN1CC[C@H](Oc2cc(-c3cnn(C)c3)cc3ncnc(Nc4ccc5ncsc5c4)c23)C[C@H]1CO [Example A07, ((2S,4S)-4-((4-(benzo[d]thiazol-6-ylamino)-7-(1-methyl-1H-pyrazol-4-yl)quinazolin-5-yl)oxy)-1-methylpiperidin-2-yl)methanol]
10.1 to 50 | ≤ 10 | ≤ 10 | CN1CC[C@H](Oc2cc(-c3cnn(C)c3)cc3ncnc(Nc4ccc5ncsc5c4)c23)C[C@@H]1CO [Example A08, [(2R,4S)-4-({4-[(1,3-benzothiazol-6-yl)amino]-7-(1-methyl-1H-pyrazol-4-yl)quinazolin-5-yl}oxy)-1-methylpiperidin-2-yl]methanol]
≤ 10 | ≤ 10 | ≤ 10 | Cn1cc(-c2cc(O[C@H]3CC[C@@H](N)CC3)c3c(Nc4ccc5ncsc5c4)ncnc3c2)cn1 [Example A09, N-(5-(((1s,4s)-4-aminocyclohexyl)oxy)-7-(1-methyl-1H-pyrazol-4-yl)quinazolin-4-yl)benzo[d]thiazol-6-amine]
10.1 to 50 | 10.1 to 50 | ≤ 10 | CN1CCN(CCOc2cc(OC3CCOCC3)c3c(Nc4ccc5ncsc5c4)ncnc3c2)CC1 [Example A16, N-(7-(2-(4-methylpiperazin-1-yl)ethoxy)-5-((tetrahydro-2H-pyran-4-yl)oxy)quinazolin-4-yl)benzo[d]thiazol-6-amine]

More lines, now with the values behind:

Structure (SMILES) | IC50 [1] [nM] | IC50 (EGFR L858R) [nM] | IC50 (EGFR (d746-750)) [nM]
Cn1cc(-c2cc(O[C@@H]3CC[C@@H](O)C3)c3c(Nc4ccc5ncsc5c4)ncnc3c2)cn1 [Example 410, (1R,3R)-3-((4-(benzo[d]thiazol-6-ylamino)-7-(1-methyl-1H-pyrazol-4-yl)quinazolin-5-yl)oxy)cyclopentan-1-ol] | ≤ 10 | ≤ 10 | ≤ 10
Cn1cc(-c2cc(O[C@@H]3CC[C@H](O)C3)c3c(Nc4ccc5ncsc5c4)ncnc3c2)cn1 [Example 411, (1S,3R)-3-((4-(benzo[d]thiazol-6-ylamino)-7-(1-methyl-1H-pyrazol-4-yl)quinazolin-5-yl)oxy)cyclopentan-1-ol] | ≤ 10 | ≤ 10 | ≤ 10
Cn1cc(-c2cc(OC3CCN(C4CCOCC4)CC3)c3c(Nc4ccc5ncsc5c4)ncnc3c2)cn1 [Example 412, N-(7-(1-methyl-1H-pyrazol-4-yl)-5-((1-(tetrahydro-2H-pyran-4-yl)piperidin-4-yl)oxy)quinazolin-4-yl)benzo[d]thiazol-6-amine] | 10.1 to 50 | 10.1 to 50 | ≤ 10
Cn1cc(-c2cc(OCC3CCOC3)c3c(Nc4ccc5ncsc5c4)ncnc3c2)cn1 (stereo not drawn) [Example 413, N-(7-(1-methyl-1H-pyrazol-4-yl)-5-((tetrahydrofuran-3-yl)methoxy)quinazolin-4-yl)benzo[d]thiazol-6-amine] | 10.1 to 50 | ≤ 10 | ≤ 10
Cn1cc(-c2cc(OC3CCCOC3)c3c(Nc4ccc5ncsc5c4)ncnc3c2)cn1 (stereo not drawn) [Example 414, N-(7-(1-methyl-1H-pyrazol-4-yl)-5-((tetrahydro-2H-pyran-3-yl)oxy)quinazolin-4-yl)benzo[d]thiazol-6-amine] | ≤ 10 | ≤ 10 | ≤ 10
Cn1cc(-c2cc(OC3CCOC3)c3c(Nc4ccc5ncsc5c4)ncnc3c2)cn1 (stereo not drawn) [Example 415, N-(7-(1-methyl-1H-pyrazol-4-yl)-5-((tetrahydrofuran-3-yl)oxy)quinazolin-4-yl)benzo[d]thiazol-6-amine] | 10.1 to 50 | ≤ 10 | ≤ 10
